{"source": "patent US20210196730A1", "about": "“COMPOUND AND USE THEREOF” (priority 2018, published 2021)", "key": {"MIA PaCa-2 cell line": {"system": "MIA PaCa-2 cell line", "experiment": "In vivo anti-tumor effect, mouse subcutaneous tumor model based on MIA PaCa-2", "conditions": "for anti-tumor effect (tumor growth): compared with saline, TP 0.3, Cal 0.3, TP/Cal 0.3/0.35, Callide^NP 0.3 mg/kg (as TP), tail vein once a week", "description": "Experimental Material: MIA PaCa-2 Cell Line\nExperimental method: establishing a mouse subcutaneous tumor model based on the MIA PaCa-2 cell line, and evaluating an inhibitory effect on tumor as well as toxic and side effect of each compound of the experimental group after administration.\nExperimental process: 0.1 ml of MIA PaCa-2 cell suspension was injected into axilla of the mice, and the growth of tumor was monitored. […] Dosages of administration: TP (0.3 mg/kg), Cal (0.3 mg/kg), TP/Cal (0.3/0.35 mg/kg), Callide^NP (0.3 mg/kg, administration dosage after it was theoretically completely degraded to TP), administered via tail vein injection once a week. The tumor size was measured every two days."}, "[1]": {"system": "pancreatic cancer cell lines MIA PaCa-2, PANC-1, SW1990, and SW1990-GEM", "experiment": "Cytotoxicity experiment of Callide (DNA assay method)", "type": "cell-based", "conditions": "24 h", "description": "Experimental materials: four pancreatic cancer cell lines, i.e., MIA PaCa-2, PANC-1, SW1990, and SW1990-GEM. Whole cell culture medium, microplate reader\nExperimental Method: DNA Assay Method\nExperimental process: pancreatic cancer cells were cultured, digested, resuspended into a cell suspension with medium, and seeded into 96-well plates, with 4000 cells per well. The experimental components are […], i.e., TP group, Cal group, TP and Cal physical mixed group (TP/Cal), Callide-DMSO without esterase group (Callide without PLE), Callide-DMSO with 10 U esterase group (Callide with 10 U PLE), Callide^NP without esterase group (Callide^NP without PLE), and Callide^NP with 10 U esterase group (Callide^NP with 10 U PLE). For each group, 8 concentrations of 5 nM, 10 nM, 20 nM, 40 nM, 80 nM, 100 nM, 200 nM, and 400 nM were prepared, and each concentration was repeated in six wells. After 24 h of administration, the drug solution was removed by suction, washed with PBS twice, added […], analyzed by a microplate reader, and plotted a relative survival rate curve of cells to calculate an IC50 of each compound."}, "[2]": {"system": "pancreatic stellate cells and pancreatic cancer cells", "experiment": "Smooth actin and collagen in co-cultured pancreatic stellate cells and pancreatic cancer cells (immunofluorescence)", "type": "cell-based, KPC mice", "conditions": "co-culture 1:1, 24 hours; TP 10 nM, Cal 100 nM, TP/Cal 10/100 nM, Callide^NP 100 nM", "excerpt": "(§1) Experimental materials: pancreatic stellate cells and pancreatic cancer cells cultured in transgenic mice. Among them, pancreatic cancer cells were transfected with luciferase gene by lentivirus transfection method.\n(§2) Experimental method: in vitro co-culture, immunofluorescence histochemical analysis\n(§3) Experimental process: the tumor tissues were taken from KPC mice that spontaneously developed with tumors, and the tumor tissues were dissected, and primary pancreatic stellate cells and pancreatic cancer cells were isolated by physical in vitro disruption and enzymatic hydrolysis, and cultured.\nPancreatic stellate cells and pancreatic cancer cells were cultured in a 12-well plate at a ratio of 1:1, with a total of 100,000 cells per well, using TP (10 nM), Cal (100 nM), treated with TP/Cal (10/100 nM), and Callide^NP (100 nM), and incubated for 24 hours, and then the contents of smooth actin and collagen of the cells in each well were analyzed with immunofluorescence staining."}, "[3]": {"system": "pancreatic stellate cells and pancreatic cancer cells co-implanted orthotopic model", "type": "in vivo", "conditions": "for tumor suppression effect: TP 0.3, Cal 0.35, TP/Cal 0.3/0.35, Callide^NP 0.6 mg/kg, once every two days, 7 times", "description": "Experimental materials: pancreatic stellate cells, pancreatic cancer cells transfected with luciferase; nude mice: strain Blab/C nude, 6-8 weeks old.\nExperimental method: suspensions of pancreatic stellate cells and luciferase-transfected pancreatic cancer cells were mixed uniformly at a ratio of 1:1, and inoculated into the pancreas at a density of 10,000 cells/40 μL with an inoculation volume of 40 μL.\nExperimental process: the two kinds of cells were digested and centrifuged, resuspended with PBS and mixed at a ratio of 1:1, and then the cell mixture was mixed with Matrigel at a ratio of 1:1 and pipetted uniformly. Nude mice underwent relevant operations under the premise of review by the Ethics Committee of Tsinghua University. […], of the uniformly pipetted cell suspension was injected into the pancreas with an insulin needle, the wound was sutured, and a sedative was injected subcutaneously. About one week after the cell injection, each mouse was intraperitoneally injected with 0.1 ml of […] solution. After 10 min, the mice were anesthetized with isoflurane, and an intensity of the fluorescent signal in the pancreas of the mice was detected with a live imaging system for small animal. Subsequently, the mice were randomly divided into groups, 7 mice in each group, and TP (0.3 mg/kg), Cal (0.35 mg/kg), TP/Cal (0.3/0.35 mg/kg), and Callide^NP (0.6 mg/kg) were administrated, respectively, once every two days for a total of 7 times. After each administration, the mice were weighed. After 4 times of administration, the intensity of the fluorescent signal in the pancreas of mice was detected with the live imaging system for small animal. After the administrations were all finished, the intensity of the fluorescent signal in the pancreas of the mice was detected again with the live imaging system for small animal, while recording a survival rate of mice. After the experiment, the tumor tissues of the mice were taken, and an expression of smooth actin and collagen in the tumor tissues was detected by tissue immunofluorescence staining (the experiment results are shown in FIG. 6)."}, "[4]": {"system": "pancreatic stellate cells", "experiment": "Smooth actin and collagen in pancreatic stellate cells alone (immunofluorescence)", "type": "cell-based, KPC mice", "conditions": "24 hours, TP 10 nM, Cal 100 nM, TP/Cal 10/100 nM, Callide^NP 100 nM", "excerpt": "as §1, §2, §3\nPancreatic stellate cells alone were cultured in a 12-well plate, 100,000 cells per well, treated with TP (10 nM), Cal (100 nM), TP/Cal (10/100 nM), Callide^NP (100 nM) for 24 hours, and then contents of smooth actin and collagen of the cells in each well were analyzed with immunofluorescence staining."}, "[5]": {"experiment": "Toxicity experiment on mice in short- and long-term administration", "conditions": "mouse, in vivo", "method": "Experimental Material: BALB/C Mice\nExperimental method: BALB/C mice were divided into 5 groups, including a saline control group and four drug administration groups of TP, Cal, TP/Cal, and Callide^NP groups. 5 mice in the control group, and 5 mice for each of 3 dosages, i.e., high, medium and low dosages in each experimental group, for a total of 65 mice. Dosages of administration: TP (0.3 mg/kg, 0.6 mg/kg, 1.2 mg/kg); Cal (0.6 mg/kg, 1.2 mg/kg, 1.8 mg/kg); TP/Cal (0.6 mg/kg, 1.2 mg/kg, 1.8 mg/kg); and Callide^NP (0.6 mg/kg, 1.2 mg/kg, 1.8 mg/kg), were administered once a week via tail vein injection."}, "[6]": {"system": "humanized pancreatic cancer tissue", "experiment": "In vivo anti-tumor effect, mouse subcutaneous tumor model of humanized pancreatic cancer tissue", "description": "Experimental material: humanized pancreatic cancer tissue\nExperimental method: establishing a mouse subcutaneous tumor model based on humanized pancreatic cancer tissue\nExperimental process: a mouse subcutaneous tumor model of humanized pancreatic cancer tissue was established, TP (0.3 mg/kg) and Callide^NP (0.3 mg/kg, administration dosage after it was theoretically completely degraded to TP) were administrated via tail vein injection, once a day. One week later, the dosage of Callide^NP was increased to 0.6 mg/kg."}, "porcine liver esterase": {"system": "porcine liver esterase", "experiment": "In vitro degradation experiment of Callide (HPLC)", "type": "in vitro ADME", "conditions": "absence of porcine liver esterase", "description": "Experimental materials: phosphate buffer (PBS, Ph=7.2 to 7.4), porcine liver esterase, high performance liquid chromatography (HPLC)\nExperimental Method: HPLC Method\nExperimental process: 5 microliters of 1 mg/ml Callide (ethanol solution for solubilizing) in 5 ml of PBS buffer with or without porcine liver esterase, and stirred at 37 degrees Celsius for 1 min, 5 min, 10 min, 30 min, 1 h, 2 h, 4 h, 8 h, 12 h, 24 h, 48 h, respectively, 200 microliters of the solution were taken, filtered, and a concentration of Callide or calcipotriol in the solution was determined by HPLC."}, "[7]": {"experiment": "Rat PK experiment of Callide^NP (chromatography-mass spectrometry)", "type": "in vivo", "conditions": "SD rats, Callide^NP 0.3 and 0.6 mg/kg; for concentration of free TP in plasma / plasma half-life: TP 0.3 mg/kg", "description": "Experimental materials: rats, strain SD, 6-9 weeks old. Analytical instruments: Agilent 1290/6460 triple quadrupole mass spectrometer, made in the United States.\nExperimental Method: Chromatography-Mass Spectrometry\nExperimental process: 12 SD rats were randomly divided into 4 groups, with 3 rats in each group. TP (0.3 mg/kg), TP/Cal (0.3/0.35 mg/kg), Callide^NP (0.3 mg/kg), Callide^NP (0.6 mg/kg) were administered respectively. 300 μl of blood of each rat was collected through the orbit at 5 min, 15 min, 30 min, 1 h, 2 h, 4 h, and 8 h, respectively, centrifuged at 10000 rpm at 4° C., and the supernatant plasma was collected. The plasma was extracted with ethyl acetate/water, vortexed, sonicated, centrifuged at 4° C., the supernatant was evaporated to dryness under the protection of nitrogen, and then dissolved in mobile phase acetonitrile/water. After centrifugation, the supernatant was taken and injected."}}, "note": "pIC50: −log10 of the molar value. Where two headings read alike, the source gives them in different places.", "data": [{"smiles": "C=C1/C(=C\\C=C2/CCC[C@@]3(C)C2CCC3[C@@H](C)/C=C/[C@@H](O)C2CC2)C[C@@H](O)C[C@@H]1O", "note": "(some centres unmarked) [Cal, calcipotriol]", "values": [{"measurement": "anti-tumor effect (tumor growth)", "setting": "MIA PaCa-2 cell line", "value": "no anti-tumor effect"}, {"measurement": "killing effect on cancer cells", "setting": "[1]; within the dosage range studied (5 nM to 400 nM)", "value": "no killing effect on cancer cells"}, {"measurement": "expression levels of related proteins (smooth actin and collagen)", "setting": "[2]", "value": "significantly reduced"}, {"measurement": "toxic reactions / adverse states after administration", "setting": "mouse, in vivo", "value": "none of the mice in the Cal group showed the above-mentioned adverse symptoms"}, {"measurement": "tumor suppression effect", "setting": "[3]", "value": "no tumor suppression effect"}, {"measurement": "survival rate of mice", "setting": "[3]; compared with the control group", "value": "no significant difference"}, {"measurement": "fluorescent signal of pancreatic cancer cells", "setting": "[3]; live imaging, compared with the control group", "value": "no significant difference"}, {"measurement": "contents of smooth actin and collagen", "setting": "[4]", "value": "decreased"}]}, {"smiles": "C=C1/C(=C\\C=C2/CCC[C@@]3(C)C2CCC3[C@@H](C)/C=C/C(OC(=O)CCC(=O)O[C@@H]2[C@@]3(C(C)C)O[C@H]3[C@@H]3O[C@]34[C@]23O[C@H]3C[C@H]2C3=C(CC[C@@]24C)C(=O)OC3)C2CC2)C[C@@H](O)C[C@@H]1O", "note": "(some centres unmarked) [Callide]", "values": [{"measurement": "long-term toxicity compared with TP", "setting": "[5]", "value": "significantly reduced"}, {"measurement": "apoptosis of tumor cells", "setting": "[6]; immunohistochemical staining", "value": "accompanied by apoptosis of tumor cells"}, {"measurement": "fibrin content of the tumor tissue", "setting": "[6]; immunohistochemical staining", "value": "significantly reduced"}, {"measurement": "degradation of Callide", "setting": "porcine liver esterase; PBS, 37 degrees Celsius", "value": "could not be degraded"}, {"measurement": "concentration of Callide in the solution", "setting": "porcine liver esterase; time extended to 48 h", "value": "remained unchanged"}, {"measurement": "cell killing effect", "setting": "[1]; with 10 U porcine liver esterase", "value": "produce cell killing effect"}, {"measurement": "toxic and side effects on cells", "setting": "[1]; without the addition of esterase", "value": "no toxic and side effects on cells"}, {"measurement": "average plasma residence time", "setting": "[7]", "value": "prolonged"}, {"measurement": "concentration of free TP in plasma", "setting": "[7]", "value": "significantly reduced"}, {"measurement": "plasma half-life", "setting": "[7]", "value": "prolonged"}]}, {"smiles": "CC(C)[C@]12O[C@H]1[C@@H]1O[C@]13[C@]1(O[C@H]1C[C@H]1C4=C(CC[C@@]13C)C(=O)OC4)[C@@H]2O", "note": "[TP, triptolide]", "values": [{"measurement": "anti-tumor effect (tumor growth)", "setting": "MIA PaCa-2 cell line", "value": "inhibits tumor growth more effectively than Callide^NP"}, {"measurement": "tumor size relative to other groups", "setting": "MIA PaCa-2 cell line; mouse, in vivo", "value": "smaller than that of the TP/Cal and Callide^NP groups"}, {"measurement": "tumor weight", "setting": "MIA PaCa-2 cell line; tumors isolated and weighed after dissection", "value": "significantly less weight than the control group"}, {"measurement": "inhibitory effect on tumor growth", "setting": "[6]; first week, 0.3 mg/kg once a day via tail vein", "value": "significant inhibitory effect on tumor growth"}, {"measurement": "pIC50", "setting": "[1]; Pancreatic cancer cell, all four types of pancreatic cancer cells", "value": 7.70}, {"measurement": "expression levels of related proteins (smooth actin and collagen)", "setting": "[2]", "value": "did not change significantly"}, {"measurement": "mortality", "setting": "1.8 mg/kg, single administration", "value": "all mice died after a single administration"}, {"measurement": "morphology of spermatogonia and spermatocytes", "setting": "TP group", "value": "severely damaged"}, {"measurement": "organs (anatomical results)", "setting": "TP group", "value": "different degrees of necrosis"}, {"measurement": "relative weight of the testis", "setting": "TP group", "value": "significantly reduced"}, {"measurement": "body weight", "setting": "especially 1.2 mg/kg of TP", "value": "lost their weight significantly"}, {"measurement": "skin at the injection site on the tail", "setting": "especially 1.2 mg/kg of TP", "value": "severe skin ulceration"}, {"measurement": "toxic reactions / adverse states after administration", "setting": "high, medium and low dosages, once a week via tail vein injection", "value": "obvious toxic reactions"}, {"measurement": "concentration of free TP in plasma", "setting": "[7]", "value": "high"}, {"measurement": "plasma half-life", "setting": "[7]", "value": "short"}, {"measurement": "toxicity", "setting": "[3]; TP 0.3 mg/kg", "value": "obvious toxicity"}, {"measurement": "tumor suppression effect", "setting": "[3]", "value": "insignificant tumor suppression effect"}, {"measurement": "deaths", "setting": "[3]; after seven administrations, TP 0.3 mg/kg", "value": "one mouse died"}, {"measurement": "body weight of the mice", "setting": "[3]; mouse, in vivo", "value": "significantly reduced"}, {"measurement": "contents of smooth actin and collagen", "setting": "[4]", "value": "not significantly different"}]}]}
